This series concerns HCT-116. The series is described as follows: Cytotoxicity against HCT116 cells. As to conditions: human; call rule not given here. It is filed as cell-based.

For the molecule `Cn1c(C(=O)NCC(=O)N[C@H]2CNC(=O)[C@@H](Cc3c[nH]c4ccc(Br)cc34)NC(=O)[C@@H](O)CNC(=O)[C@@H](CC(N)=O)NC2=O)cc(Cl)c1Cl` [CYCLOCINAMIDE B], the Activity result is “Not Active”.

Values taken from ChEMBL document CHEMBL1147127, “Halogenated cyclic peptides isolated from the sponge Corticium sp” (J Nat Prod, 2007).
